Results: patent publication US20250188078A1, “SMALL MOLECULE INHIBITORS OF THE CRL4 UBIQUITIN LIGASE” (Cornell University, priority 2022, published 2025)
Where two headings read alike, the source gives them in different places.

Legend:
[1] = test system: CUL1-dependent IκB-α degradation in Hela cells; assay: TNFα-induced CUL1/SCF-dependent IκBα degradation assay (Western blot); type: cell-based; details: FIG. 6D
Description: FIG. 6D Western blotting of TNFα-induced […] IκBα degradation assay. Hela cells were seeded in 6-well plates. After 24 hours incubation, DMSO or indicated concentration of compounds were added with serum-free medium for 2 hours incubation. TNFα was added and cells were harvested, lysed in buffer containing 150 mM NaCl, 1% SDS, 10 mM Tris-HCl (pH 6.8), 1× complete protease inhibitor cocktail and 10 U Benzo nuclease. Equal amounts of proteins were resolved on 9% SDS-PAGE gel and IκBα levels were detected using anti-IκBα rabbit polyclonal antibody (Proteintech, 10268-1-AP). α-tubulin (Proteintech, #66031-1-Ig) was used as an internal loading control. TNFα-induced IκBα degradation was mediated by CUL1/SCF^βTrCP E3 ligase.

[2] = target: DDB1-BPB (Homo sapiens (Human), UniProt Q16531); assay: Microscale Thermophoresis (MST) binding to DDB1-BPB; details: labeled DDB1-BPB, 25° C.
Description: Kd represents dissociation constant, which measures the affinity of small molecule binding to the scaffold DDB1-BPB by Microscale Thermophoresis (MST) (see Table 1, column 9). MST experiments were performed on a Monolith NT 115 system (Nano Temper Technologies, Munich, Germany) using 100% LED and 60% IR-laser power (https://physiology.case.edu/media/eq manuals/eq_manual_nano-temper_mst_starting_guide.pdf, hereby incorporated by reference in its entirety for all purposes). The labeling of DDB1-BPB ([…]) was performed in labeling buffer with NHS-Red reactive dye (30 μM) (Nanotemper), which reacts efficiently with the primary amines of the proteins to form a stable dye protein conjugates. The labeling reaction was carried out at RT. A 16-point serial dilution (1:1) was prepared for compound at the final concentration ranged from 200 µM to 3 nM in PBS containing 0.05% tween. The samples were filled into Premium capillaries and measurements were conducted at 25° C. An equation implemented by the software MO-S002 MO Affinity Analysis, provided by the manufacturer, was used for fitting normalized fluorescence values at different concentrations of ligands.

[3] = test system: CUL4A-Vpr-dependent UNG2 degradation in Hela DOX-inducible-Vpr cells; assay: DOX-induced Vpr-mediated CUL4-dependent UNG2 degradation (Western blot); type: cell-based; details: FIG. 6C
Description: FIG. 6C. Inhibition of DOX-induced Vpr-mediated CUL4-dependent UNG2 degradation by small molecule CUL4 inhibitors. In brief, Hela DOX-inducible-Vpr cells were seeded in 6-well plates. After 24 hours incubation, medium was changed to growth medium with 75 ng/ml doxycycline (DOX) overnight. On the third day, DMSO or indicated concentrations of compounds in serum-free medium containing DOX were added. The cells were lysed in buffer containing 150 mM NaCl, 1% SDS, 10 mM Tris-HCl (pH 6.8), 1× complete protease inhibitor cocktail and 10 U Benzo nuclease. Equal amounts of proteins were resolved on 9% SDS-PAGE gel and UNG2 levels were detected using anti-UNG2 (2C12) antibody (Origene #TA503563). α-tubulin (Proteintech, #66031-1-Ig) was used as an internal control. Normalized UNG2/α-tubulin ratio is higher in the compound treated sample than DMSO treated sample. (−) means that no change happens between compound treated sample with control sample.

[4] = test system: CUL4A^low T47D breast cancer cells; assay: Cell killing in CUL4-low T47D cells (CellTiter Glo); type: cell-based; details: Homo sapiens, 192 h, 8 days treatment
[5] = target: CUL4A-DDB1-BPB interaction (Homo sapiens (Human), UniProt Q16531); assay: AlphaLISA in vitro binding assay, CUL4A and DDB1-BPB binding; details: inhibition of CUL4A and DDB1-BPB binding
Summary of the method: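 Compound disruption of CUL4A binding to DDB1-BPB measured by AlphaLISA/AlphaScreen bead proximity in 384-well format. IC50 from nonlinear log(inhibitor)-vs-response curve fit.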

[6] = T47D cells, read-out: EC50 CUL4-Low Cells (cell killing)

Chain of CUL4A-DDB1-BPB interaction (Q16531 403-706): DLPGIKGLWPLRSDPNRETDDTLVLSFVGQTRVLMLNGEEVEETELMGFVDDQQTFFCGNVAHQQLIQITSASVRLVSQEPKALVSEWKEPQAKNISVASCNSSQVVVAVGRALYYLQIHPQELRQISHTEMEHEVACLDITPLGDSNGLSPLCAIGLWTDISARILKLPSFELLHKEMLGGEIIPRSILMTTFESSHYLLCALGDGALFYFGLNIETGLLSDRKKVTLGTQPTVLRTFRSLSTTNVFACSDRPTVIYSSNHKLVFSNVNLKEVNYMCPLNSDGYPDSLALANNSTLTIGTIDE
Chain of DDB1-BPB (Q16531 403-706): as above

| Structure (SMILES) | Inhibition of TNF-α induced CUL1-dependent IκB-α degradation [1] | Kd (MST) [2] | Inhibition of CUL4A-Vpr-dependent UNG2 degradation [3] | EC50 [4, 6] [nM] | IC50 [5] [nM] | Kd [2] [nM] | EC50 ([4]; T47D, Table 3, 0 to 20 μM compound, read-out: EC50 OF cell killing, T47D) [nM] |
| --- | --- | --- | --- | --- | --- | --- | --- |
| CN(c1ccc(-c2nc(C(=O)O)cc3c2[nH]c2ccc(F)cc23)cc1)S(=O)(=O)c1ccccc1 [PA93] | no inhibition | Insoluble | robust inhibition | > 100000 | 210 ± 100 | – | – |
| CN(c1ccc(-c2nc(C(=O)O)cc3c2[nH]c2cccc(F)c23)cc1)S(=O)(=O)c1ccccc1 [PA99, 5-fluoro-1-(4-(N-methylphenylsulfonamido)phenyl)-9H-pyrido[3,4-b]indole-3-carboxylic acid] | no inhibition | – | robust inhibition | 8270 | 380 | 2970 | 8270 |
